US7572600B2, “Enzymatic activities in chemokine-mediated inflammation” (Chemocentryx, Inc., priority 2004, dated 2009)
Where no end group is shown, it is not given here.

B1: CCL23β Δ24: truncated form of CCL23β lacking the 24-residue N-terminal domain, beginning with the SHAAGtide insertion (protein, listed as Homo sapiens)
chain: MLWRRKIGPQMTLSHAAGFHATSADCCISYTPRSIPCSLLESYFETNSECSKPGVIFLTKKGRRFCANPSDKQVQVCMRMLKLDTRIKTRKN

Experiments:
FPRL1 = molecular target: T1, FPRL1 (Homo sapiens, UniProt P25090); assay: Receptor signaling (calcium mobilization) in L1.2-FPRL1 cells; assay type: cell-based; set-up: expressed in transfected cells; conditions: for calcium mobilization in the FPRL1 transfectant: L1.2 cells stably expressing human FPRL1, undigested
T1 sequence (P25090 1-351): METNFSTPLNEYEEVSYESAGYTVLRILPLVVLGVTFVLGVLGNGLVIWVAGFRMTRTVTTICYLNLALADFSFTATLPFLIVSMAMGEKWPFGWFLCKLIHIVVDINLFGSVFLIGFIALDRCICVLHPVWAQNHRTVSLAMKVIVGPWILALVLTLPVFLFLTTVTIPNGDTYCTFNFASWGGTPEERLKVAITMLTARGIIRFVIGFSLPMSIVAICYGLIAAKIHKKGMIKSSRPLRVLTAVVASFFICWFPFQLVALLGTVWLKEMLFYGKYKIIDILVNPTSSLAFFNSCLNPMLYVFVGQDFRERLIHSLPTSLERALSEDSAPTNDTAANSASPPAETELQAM
Experimental: Receptor signaling assay. For individual measurements, cells were loaded for 45 min at room temperature with 2 μM indo-1/AM (Invitrogen, Carlsbad Calif.) in culture medium, then washed with 10 ml PBS and resuspended at 10^6 cells/ml in HBSS containing 0.1% BSA. Cytosolic calcium levels were determined using a Photon Technology International fluorimeter (excitation at 350 nm, ratio of dual emission at 400 and 490 nm). For measuring calcium dose responses, cells were analyzed with a Fluorometric Imaging Plate Reader 384 (FLIPR^384) (Molecular Devices, Sunnyvale, Calif.). Cells were loaded for 1 hr at 37° C. with 5 μM fluo-4 in HBSS with 0.1% BSA, then washed, transferred to black-wall 96-well plates, and subsequently excited at 505 nm with emission recorded at 530 nm with a standard protocol provided by the manufacture. Cells were stimulated with agonists 20 s after the monitoring of fluorescence began. Data were analyzed and plotted in arbitrary units of fluorescence using Prism. To ensure that responses were specific to FPRL1, we utilized a selective small-molecule antagonist of human FPRL1, generated by ChemoCentryx, which was optimized from a high throughput compound library screening approach.
Since FPRL1 has been reported to interact with low affinity and/or potency with a spectrum of potential pathogenic ligands of viral, bacterial and endogenous origin, we performed comparative functional analyses to determine the precise functional domain for the SHAAGtide (FIG. 14). SHAAGtides containing N-terminal and C-terminal truncations and extensions were synthesized, and potencies for receptor signaling in L1.2-FPRL1 cells were tested. […] After removal of the N-terminal amino acid (Met) from SHAAGtide, its potency is reduced approximately 10 fold. Removal of the first two N-terminal amino acids (Met-Leu) totally abolished SHAAGtide's activity on FPRL1. Conversely, removal of the C-terminal three amino residues (AAG) from SHAAGtide had no effect on its activity on FPRL1. Removal of the C-terminal six residues (LSHAAG) reduced the peptide's potency only 3-fold. Many other purported naturally-occurring FPRL1 ligands, including serum amyloid A (SAA), beta-amyloid protein 42, lipoxin A4 and the bacterial tripeptide fMLP were tested.

human neutrophils = assay: Chemotaxis of human neutrophils; assay type: cell-based
Experimental: (§1) Chemotaxis assay. L1.2-CCR1 transfectants, THP-1 cells, human monocytes and human neutrophils were collected by centrifugation and resuspended in HBSS containing 0.1% BSA. Chemotaxis assays were performed in 96-well ChemoTx® microplates (Neuroprobe, Rockville, Md.) as follows. Chemokines were added to the lower wells (final volume 29 μL), and 20 μL of cell suspension (5×10^6 cells/mL) was added to the polycarbonate filter (3 μm pore size for neutrophils, 5 μm for other 3 cell types). After incubation at 37° C. in the presence of 5% CO2 for 1 hr (neutrophils), 90 min (monocytes) or 2 h (THP-1 and L1.2-CCR1), cells were removed from the upper surface of the filter by scraping. Cells that migrated into the lower chamber were quantified by using the CyQuant cell proliferation assay kit (Molecular Probes, Eugene, Oreg.) and analyzed with a Tecan (Durham, N.C.) fluorimeter (excitation at 480 nm, emission at 530 nm). Data were analyzed and plotted in arbitrary units of fluorescence using Prism (GraphPad Software, San Diego, Calif.).
(§2) Chemotaxis assays. L1.2-CCR1 and L1.2-FPRL1 transfectants, monocytes and neutrophils were collected by centrifugation and resuspended in HBSS with 0.1% BSA. The assays were performed in 96-well ChemoTx® microplates (Neuroprobe, Rockville, Md.). Chemokines were diluted in HBSS with 0.1% BSA and added to the lower wells (final volume 29 μL), then 20 μL of cell suspension (5×10^6 cells/mL for monocytes; 2.5×10^6 cells/mL for neutrophils) were added to the polycarbonate filters (5 μm pore size for monocytes and FPRL1 transfectants; 3 μm pore size for neutrophils). After incubation for 90 min (37° C., 100% humidity, 5% CO2), the filters were removed and the cells that migrated into the lower chamber were quantified by using the CyQuant cell proliferation assay kit (Molecular Probes, Oreg.).

human monocytes = assay: Chemotaxis of human monocytes; assay type: cell-based; conditions: undigested
Experimental: as §1, §2

[1] = system: murine bone marrow neutrophils; assay: Calcium responses and chemotaxis in murine bone marrow neutrophils; assay type: cell-based, mouse; conditions: murine bone marrow neutrophils (not shown)

Row | Molecule | calcium mobilization in the FPRL1 transfectant (FPRL1) | Designation and FPRL1 Activity (FPRL1; SHAAGtide and truncated/other variants) | chemotaxis (human neutrophils) | chemotaxis (human monocytes) | calcium responses and chemotaxis [1]
1 | MLWRRKIGPQMTLSHAAG [SHAAGtide] | fully effective | sequence; high | vigorous chemotaxis | vigorous chemotaxis | able to induce calcium responses and chemotaxis
2 | B1 | fully effective |  | vigorous chemotaxis | vigorous chemotaxis | able to induce calcium responses and chemotaxis
